Read-outs that look alike come from different tables or passages of the source.
Columns and labels:
[1] = Batch extraction of rac-propranolol with dibutyl L-(+)-tartrate / boric acid, dichloromethane/water; format: physicochemical; conditions: for distribution coefficient: dichloromethane with dibutyl-L-tartrate / water with boric acid
Method: One mobile phase was used—a 54/46 v/v methanol/water solution containing 110 mM sodium acetate adjusted to a pH of 6 using glacial acetic acid, 215 mM boric acid, and 285 mM dibutyl L-(+)-tartrate. The flow rate was 0.23 mL/min. The column was heated to 25° C. and the detection was monitored at a wavelength of 275 nm. Samples were diluted 20× in 54/46 v/v methanol/water solution containing 110 mM sodium acetate buffered to a pH of 6 with glacial acetic acid and the injection volume was 10 μL.
Batch extraction experiments were performed as follows. 2 mL of 1 mg/mL rac-Propranolol in water containing 152.1 mM boric acid was mixed with 2 mL of 152.1 mM dibutyl L-(+)-tartrate in dichloromethane. The solution was vigorously shaken for approximately 2 minutes and allowed to fully settle. 20 μL of each phase were diluted with 380 μL of 110 mM sodium acetate in a 54/46 methanol/water solution buffered to a pH of 6 using glacial acetic acid and the solute concentrations were determined by HPLC.

[2] = 1,2-Dichloroethane/water (literature), 45x molar excess dibutyl-L-tartrate and boric acid; listed as R/S-PRP; cited from earlier work
[3] = Current platform (10/5/5 DCM/methanol/water ratio)
Method: Batch extraction experiments were performed as follows. 1 mg of each solute was added to 2 mL of dichloromethane, 1 mL of water, and 1 mL of methanol. The solution was vigorously shaken for around 2 minutes and allowed to fully settle. 100 μL of each phase were diluted with 900 μL of methanol and the solute concentrations were determined by HPLC.

[4] = Literature (10/6/4 DCM/methanol/water ratio); cited from earlier work
[5] = Partition coefficients of delta-9- and delta-8-tetrahydrocannabinol in liquid mixtures (Examples 1-9); format: physicochemical
Method: The cannabinoid sample contained both delta-9-tetrahydrocannabinol with delta-8-tetrahydrocannabinol. The liquid mixtures included an organic phase as the first liquid phase and a water soluble phase as the second liquid phase. The organic phase and the water soluble phase were in 1:1 volume ratio for all analyses. Various hydrocarbons were evaluated as the organic phase. These hydrocarbons included hexane, heptane, cyclohexane, pentane, 1-hexene, toluene, benzene, 1-octadecene, and dodecane. Various amide based solvents were evaluated as the water soluble phase. These amide based solvents included formamide (F), dimethyl formamide (DMF), methyl formamide (MF), dibutyl formamide (DBF).
Example 9. A mixture of formamide (F) and dimethyl formamide (DMF) and dibutyl formamide (DBF) at a volume ratio of 1:3:1 (20% F and 60% DMF and 20% DBF) was used as the water soluble phase. Hexane was used as the organic phase. […] The partition coefficients for each component (e.g., delta-9-tetrahydrocannabinol, delta-8-tetrahydrocannabinol) in the liquid mixture were determined by calculating a ratio of the concentration of the component in the water soluble phase over concentration of the component in the organic phase.

CC(C)NC[C@@H](O)COc1cccc2ccccc12 [R-PRP, R-propranolol]
distribution coefficient [1]: 0.12

CC(C)NCC(O)COc1cccc2ccccc12 (centres unmarked) [R/S-propranolol]
Selectivity between enantiomers [2]: 2.54±0.13
Selectivity between enantiomers ([1]; Dichloromethane/water (experiment), 45x molar excess dibutyl-L-tartrate and boric acid): 2.58 ± 0.07

CC(C)NCC(O)COc1cccc2ccccc12 (centres unmarked) [S-PRP]
distribution coefficient [1]: 0.30

COc1cc(C=O)cc(OC)c1O [Syringaldehyde, syringaldehyde]
αx/pHBA (selectivity) [3]: 25.5
αx/pHBA (selectivity) [4]: 17.8

CCCCCc1cc(O)c2c(c1)OC(C)(C)[C@@H]1CCC(C)=C[C@@H]21 [delta-9-tetrahydrocannabinol]
Kd9,THC/Kd8,THC ([5]; Example 1: F:DMF (9:16) / Hexane): 1.47
Kd9,THC/Kd8,THC ([5]; Example 2: F:DMF (9:16) / Heptane): 1.45
Kd9,THC/Kd8,THC ([5]; Example 3: F:DMF (9:16) / Cyclohexane): 1.48
Kd9,THC/Kd8,THC ([5]; Example 4: F:DMF (9:16) / Pentane): 1.36
Kd9,THC/Kd8,THC ([5]; Example 5: F:DMF (9:16) / 1-Hexene): 1.37
Kd9,THC/Kd8,THC ([5]; Example 6: F:DMF (1:1) / Dodecane): 1.39
Kd9,THC/Kd8,THC ([5]; Example 7: F:MF (1:1) / Hexane): 1.20
Kd9,THC/Kd8,THC ([5]; Example 8: F:MF (2:3) / Hexane): 1.23
Kd9,THC/Kd8,THC ([5]; Example 9: F:DMF:DBF (1:3:1) / Hexane): 1.39

O=C(O)c1ccc(O)cc1 [pHBA, para-hydroxybenzoic acid]
αx/pHBA (selectivity) [3]: 1.00
αx/pHBA (selectivity) [4]: 1.00

Source: US20250361219A1, “SYSTEMS AND METHODS FOR SEPARATION OF CHEMICAL SPECIES, SUCH AS CANNABINOIDS, USING MULTIPLE LIQUID PHASES” (priority 2022, published 2025)
